Data: patent publication US20250092353A1, “COMMENSAL FUNGUS AND USES THEREOF” (YEDA RESEARCH AND DEVELOPMENT CO. LTD., priority 2022, published 2025)

Tested on: serum IgA and IgG
Experiment: In vitro serum antibody binding assay (sera of colonized mice)
Type: in vivo
Settings: single-colonized animals
Experimental: Blood was collected from mice at rested at RT for 1 hour, followed by centrifugation 2,000 g 10 min. Serum supernatant was collected and froze at −80° C. until use. Cultured fungi were normalized to OD600=1 in PBS supplemented with 1% bovine serum albumin and 0.01% sodium azide (PBA solution). Cultured fungi were incubated with 20× diluted mouse serum on ice for 45 minutes, then washed twice with PBA, followed by staining with anti-mouse IgA and IgG. Samples were recorded on Cytek Aurora and analyzed in FlowJo (Treestar). Antibody binding intensity was normalized to the negative controls. Isotype control, non-stained and no-serum were used as negative controls.

Kazachstania weizmannii [K. weizmannii]
anti-fungal serum IgA and IgG titers: induced robust anti-fungal serum IgA and IgG titers in most animals
